Where a name gives a salt, the structure may show the parent alone.

This is an account of results in US9051311B2, “Sulfamide sodium channel inhibitors” (AMGEN INC., priority 2012, dated 2015).

The target in assay [1] is T1, Nav 1.7 (Homo sapiens (Human), UniProt Q15858). Description: Nav 1.7 IonWorks Quattro (IWQ) in vitro assay, population patch-clamp.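 Also: cells held at −110 mV for 3 s, then 26 pulses of 150 ms at 5 Hz, leak-corrected peak current, percent block measured before and after compound, 3–8 min exposure.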 In kind it is cell-based. The following applies: 293 cells stably transfected with Nav 1.7; block at 26th pulse to −20 mV. (In general: The patch-clamp technique gives a direct electrical read-out from membranes.)
T1 sequence (Q15858 whole entry): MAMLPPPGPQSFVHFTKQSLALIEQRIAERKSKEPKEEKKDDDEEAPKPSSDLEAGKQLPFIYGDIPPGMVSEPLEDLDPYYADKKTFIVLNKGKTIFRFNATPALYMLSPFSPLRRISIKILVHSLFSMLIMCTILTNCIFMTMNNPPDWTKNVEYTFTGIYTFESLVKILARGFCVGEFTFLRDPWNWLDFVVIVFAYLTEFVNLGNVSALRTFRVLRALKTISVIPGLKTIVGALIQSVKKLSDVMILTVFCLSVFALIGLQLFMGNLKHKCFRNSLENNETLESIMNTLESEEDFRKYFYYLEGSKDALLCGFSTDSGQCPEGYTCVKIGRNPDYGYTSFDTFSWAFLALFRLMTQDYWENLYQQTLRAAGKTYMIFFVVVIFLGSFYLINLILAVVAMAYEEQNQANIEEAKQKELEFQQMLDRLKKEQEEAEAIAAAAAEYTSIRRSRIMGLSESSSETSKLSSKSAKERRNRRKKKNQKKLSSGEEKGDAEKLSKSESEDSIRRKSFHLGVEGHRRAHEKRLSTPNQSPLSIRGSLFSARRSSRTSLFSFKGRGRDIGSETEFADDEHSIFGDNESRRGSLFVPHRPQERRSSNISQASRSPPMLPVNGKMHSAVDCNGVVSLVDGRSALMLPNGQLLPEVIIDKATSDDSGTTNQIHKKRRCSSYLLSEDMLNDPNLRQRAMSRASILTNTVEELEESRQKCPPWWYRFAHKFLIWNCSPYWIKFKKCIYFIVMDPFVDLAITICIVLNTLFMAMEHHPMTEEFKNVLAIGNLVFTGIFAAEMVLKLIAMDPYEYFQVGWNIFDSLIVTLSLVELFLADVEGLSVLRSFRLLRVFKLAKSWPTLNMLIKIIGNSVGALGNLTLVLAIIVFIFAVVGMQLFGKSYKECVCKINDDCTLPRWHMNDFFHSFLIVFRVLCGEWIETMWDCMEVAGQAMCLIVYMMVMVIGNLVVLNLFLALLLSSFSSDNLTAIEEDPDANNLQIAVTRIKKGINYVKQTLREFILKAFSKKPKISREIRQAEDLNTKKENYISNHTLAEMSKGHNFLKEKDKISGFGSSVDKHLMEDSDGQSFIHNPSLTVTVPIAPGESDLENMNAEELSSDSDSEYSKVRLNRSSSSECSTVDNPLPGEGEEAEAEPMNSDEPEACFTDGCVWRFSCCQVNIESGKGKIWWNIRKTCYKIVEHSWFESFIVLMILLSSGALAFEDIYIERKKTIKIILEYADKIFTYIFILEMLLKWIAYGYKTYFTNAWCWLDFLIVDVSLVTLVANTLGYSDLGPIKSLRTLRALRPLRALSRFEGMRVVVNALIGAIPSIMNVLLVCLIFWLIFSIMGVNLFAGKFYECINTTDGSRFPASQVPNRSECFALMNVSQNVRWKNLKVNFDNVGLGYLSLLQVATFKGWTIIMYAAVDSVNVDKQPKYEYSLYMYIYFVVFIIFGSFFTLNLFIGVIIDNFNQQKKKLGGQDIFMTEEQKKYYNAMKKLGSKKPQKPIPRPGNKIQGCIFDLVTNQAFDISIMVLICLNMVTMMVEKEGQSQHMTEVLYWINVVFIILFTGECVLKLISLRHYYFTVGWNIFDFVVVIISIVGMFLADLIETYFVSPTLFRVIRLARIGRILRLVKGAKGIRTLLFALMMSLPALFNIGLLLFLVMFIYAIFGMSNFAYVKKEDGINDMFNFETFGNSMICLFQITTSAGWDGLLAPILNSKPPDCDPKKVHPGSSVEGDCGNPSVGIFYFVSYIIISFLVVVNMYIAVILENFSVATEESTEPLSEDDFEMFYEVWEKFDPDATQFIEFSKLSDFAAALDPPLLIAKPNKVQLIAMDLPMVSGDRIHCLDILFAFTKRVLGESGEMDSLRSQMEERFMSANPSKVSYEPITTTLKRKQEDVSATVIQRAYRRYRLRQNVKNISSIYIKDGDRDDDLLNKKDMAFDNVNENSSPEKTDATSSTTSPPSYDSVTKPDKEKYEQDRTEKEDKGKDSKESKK
Procedure: (§1) Nav 1.7 and Nav 1.5 Ion Works Quattro (IWQ) In Vitro Assays
(§2) 293 cells stably transfected with either Nav 1.7 or with Nav 1.5 were recorded in population patch-clamp mode with the IonWorks® Quattro automated electrophysiology system in accordance with the manufacturer's specifications (Molecular Devices, LLC, Sunnyvale, Calif.). Sodium channel currents were measured in response to a train of depolarizations that induced successively greater inactivation.
(§3) Cells were held at −110 mV for three seconds (Nav 1.7) or half a second (Nav 1.5) from a holding voltage of −15 mV, then put through a series of 26 pulses of 150 msec duration to −20 mV at a frequency of 5 Hz. Cells were then left unclamped for a period of 3 to 8 minutes while a single concentration of test compound was added. Cells were then reclamped and put through the same voltage protocol. Current at the end of the 26th pulse to −20 mV was subtracted from the peak current evoked by the 26th pulse to −20 mV to correct for leak current. Percent block was calculated for each concentration in duplicate, and IC50 curves were fitted to percent block as a function of concentration.
In assay [2] the target is T1, Nav 1.7. Description: Nav 1.7 in vitro PatchExpress (PX) assay, whole cell voltage clamp. The note with it: 293 cells stably transfected with human Nav1.7; partially inactivated state (20 to 50% inactivation). It counts as cell-based. How it is done:
Nav 1.7 In Vitro PatchExpress (PX) Assay
293 cells stably transfected with human Nav1.7 were recorded in whole cell voltage clamp mode with the PatchXpress automated electrophysiology system (Molecular Devices, LLC, Sunnyvale, Calif.). Compound effects were measured on a partially inactivated state of the sodium channel. Cells were clamped to a holding potential yielding 20 to 50% inactivation. To elicit sodium current, channels were activated by pulsing to −10 mV for 20 msec. This voltage protocol was repeated at a rate of 0.1 Hz throughout the experiment. A single concentration of test compound was applied to cells for a duration of 3 minutes. Peak sodium current was measured at the end of the compound addition period to determine percent inhibition.

Another assay addresses Nav 1.5 (Homo sapiens (Human), UniProt Q14524). Description: cell-based.

Nav 1.5, sequence (Q14524 whole entry): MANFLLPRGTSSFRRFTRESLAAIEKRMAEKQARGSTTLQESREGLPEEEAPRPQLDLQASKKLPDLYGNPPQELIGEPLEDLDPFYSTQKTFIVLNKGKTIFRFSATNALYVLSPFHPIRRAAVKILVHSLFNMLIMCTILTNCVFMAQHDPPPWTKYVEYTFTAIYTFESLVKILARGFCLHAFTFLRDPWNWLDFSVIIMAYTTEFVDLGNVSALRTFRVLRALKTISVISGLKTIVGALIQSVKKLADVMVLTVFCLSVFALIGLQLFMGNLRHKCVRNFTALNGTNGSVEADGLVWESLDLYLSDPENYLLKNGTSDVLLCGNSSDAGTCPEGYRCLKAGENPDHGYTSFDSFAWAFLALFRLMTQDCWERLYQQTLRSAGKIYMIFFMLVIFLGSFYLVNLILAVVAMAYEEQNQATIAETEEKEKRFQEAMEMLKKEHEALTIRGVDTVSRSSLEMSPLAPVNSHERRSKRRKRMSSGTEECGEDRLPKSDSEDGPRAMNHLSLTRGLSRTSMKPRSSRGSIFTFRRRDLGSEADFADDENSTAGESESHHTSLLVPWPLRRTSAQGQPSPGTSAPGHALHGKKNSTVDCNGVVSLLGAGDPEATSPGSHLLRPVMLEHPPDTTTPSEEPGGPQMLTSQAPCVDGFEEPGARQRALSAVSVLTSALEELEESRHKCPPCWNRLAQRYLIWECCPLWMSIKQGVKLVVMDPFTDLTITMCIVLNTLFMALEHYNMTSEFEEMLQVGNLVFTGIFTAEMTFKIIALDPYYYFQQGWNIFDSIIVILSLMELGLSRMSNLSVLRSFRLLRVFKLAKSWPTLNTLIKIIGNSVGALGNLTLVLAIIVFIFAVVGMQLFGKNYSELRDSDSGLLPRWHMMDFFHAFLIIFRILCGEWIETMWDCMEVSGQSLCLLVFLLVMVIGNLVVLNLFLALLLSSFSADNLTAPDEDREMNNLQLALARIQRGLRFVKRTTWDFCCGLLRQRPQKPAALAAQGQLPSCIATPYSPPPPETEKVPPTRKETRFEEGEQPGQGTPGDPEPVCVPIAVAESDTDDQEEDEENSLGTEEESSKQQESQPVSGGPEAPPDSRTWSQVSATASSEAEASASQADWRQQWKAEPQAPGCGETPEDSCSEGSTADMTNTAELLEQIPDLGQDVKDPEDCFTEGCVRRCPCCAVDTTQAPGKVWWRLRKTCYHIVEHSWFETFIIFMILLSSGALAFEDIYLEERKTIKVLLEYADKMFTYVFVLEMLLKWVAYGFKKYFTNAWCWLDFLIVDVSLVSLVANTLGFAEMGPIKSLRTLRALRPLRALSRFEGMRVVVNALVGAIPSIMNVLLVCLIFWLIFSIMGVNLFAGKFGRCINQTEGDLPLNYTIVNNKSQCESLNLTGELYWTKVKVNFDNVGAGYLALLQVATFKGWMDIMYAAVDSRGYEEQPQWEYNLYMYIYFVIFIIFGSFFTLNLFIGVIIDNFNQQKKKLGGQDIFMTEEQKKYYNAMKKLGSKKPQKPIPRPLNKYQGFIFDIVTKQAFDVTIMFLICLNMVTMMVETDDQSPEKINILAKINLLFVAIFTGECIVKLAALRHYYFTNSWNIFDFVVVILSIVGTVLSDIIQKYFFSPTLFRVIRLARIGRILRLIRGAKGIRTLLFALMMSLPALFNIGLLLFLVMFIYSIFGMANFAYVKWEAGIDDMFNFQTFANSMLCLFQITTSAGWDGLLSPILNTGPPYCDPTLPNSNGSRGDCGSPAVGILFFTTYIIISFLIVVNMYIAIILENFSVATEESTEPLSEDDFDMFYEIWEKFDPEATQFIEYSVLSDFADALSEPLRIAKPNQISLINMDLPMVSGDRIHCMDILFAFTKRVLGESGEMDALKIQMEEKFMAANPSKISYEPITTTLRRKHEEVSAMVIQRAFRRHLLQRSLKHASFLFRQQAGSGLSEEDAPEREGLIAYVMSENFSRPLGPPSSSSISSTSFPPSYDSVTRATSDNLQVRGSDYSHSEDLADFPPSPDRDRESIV
Procedure for Nav 1.5: as §1, §2, §3

Regarding `O=S(=O)(Nc1ncns1)N1CCc2c(cccc2-c2ccc(C(F)(F)F)cc2N2CCOCC2)C1` [Example 31, 5-(2-Morpholino-4-(trifluoromethyl)phenyl)-N-(1,2,4-thiadiazol-5-yl)-3,4-dihydroisoquinoline-2(1H)-sulfonamide], the figures for the IC50 at Nav 1.7 [1], against Nav 1.7 [2] and at Nav 1.5 were 0.758 µM, 1.74 µM and > 10 µM, respectively.
On to `COc1ccc(-c2ccc(F)c(F)c2)cc1-c1cccc2c1CCN(S(=O)(=O)Nc1nncs1)C2` [Example 63, 5-(3′,4′-difluoro-4-methoxy-[1,1′-biphenyl]-3-yl)-N-(1,3,4-thiadiazol-2-yl)-3,4-dihydroisoquinoline-2(1H)-sulfonamide], for which the IC50 against Nav 1.7 [2] worked out at 11.2 µM.
As to `COc1cncc(-c2cc(C(F)(F)F)ccc2-c2cccc3c2CCN(S(=O)(=O)Nc2ncns2)C3)c1` [Example 20, 5-(2-(5-Methoxypyridin-3-yl)-4-(trifluoromethyl)phenyl)-N-(1,2,4-thiadiazol-5-yl)-3,4-dihydroisoquinoline-2(1H)-sulfonamide], the IC50 on Nav 1.7 [1] was 5.83 µM; at Nav 1.5, > 10 µM.
Consider `COc1cc(C2CC2)ccc1-c1cccc2c1CCN(S(=O)(=O)Nc1ncns1)C2` [Example 45, 5-(4-Cyclopropyl-2-methoxyphenyl)-N-(1,2,4-thiadiazol-5-yl)-3,4-dihydroisoquinoline-2(1H)-sulfonamide], for which the half-inhibitory concentration (IC50) against Nav 1.7 [1] is 0.0675 µM; at Nav 1.7 [2], 0.87 µM; against Nav 1.5, > 10 µM.
The corresponding values for `C[N+]1(C)CC=C(c2cc(C(F)(F)F)ccc2-c2cccc3c2CCN(S(=O)(=O)Nc2ncns2)C3)CC1` [Example 14, 4-(2-(2-(N-(1,2,4-Thiadiazol-5-yl)sulfamoyl)-1,2,3,4-tetrahydroisoquinolin-5-yl)-5-(trifluoromethyl)phenyl)-1,1-dimethyl-1,2,3,6-tetrahydropyridin-1-ium hydroxide] are 0.684 µM, 3.53 µM and > 10 µM.
The corresponding values for `O=S(=O)(Nc1ncc(F)s1)N1CCc2c(cccc2-c2ccc(C(F)(F)F)cc2C2CCNCC2)C1` [Example 35, N-(5-Fluorothiazol-2-yl)-5-(2-(piperidin-4-yl)-4-(trifluoromethyl)phenyl)-3,4-dihydroisoquinoline-2(1H)-sulfonamide hydrochloride] are 0.315 µM, 0.17 µM and > 10 µM.
At Nav 1.7 [2], `COc1cc(-c2ccc(F)c(F)c2)ccc1-c1cccc2c1CCN(S(=O)(=O)Nc1nncs1)C2` [Example 62, 5-(3′,4′-difluoro-3-methoxy-[1,1′-biphenyl]-4-yl)-N-(1,3,4-thiadiazol-2-yl)-3,4-dihydroisoquinoline-2(1H)-sulfonamide] gave an IC50 of 8.05 µM.
As to `O=S(=O)(Nc1ncns1)N1CCc2c(cccc2-c2ccc(C(F)(F)F)cc2-c2cn[nH]c2)C1` [Example 17, 5-(2-(1H-Pyrazol-4-yl)-4-(trifluoromethyl)phenyl)-N-(1,2,4-thiadiazol-5-yl)-3,4-dihydroisoquinoline-2(1H)-sulfonamide], the results for the IC50 against Nav 1.7 [1], against Nav 1.7 [2] and at Nav 1.5 were 0.157 µM, 0.35 µM and > 10 µM, respectively.
Consider `COc1ncccc1-c1cccc2c1CCN(S(=O)(=O)Nc1ncns1)C2` [Example 50, 5-(2-Methoxypyridin-3-yl)-N-(1,2,4-thiadiazol-5-yl)-3,4-dihydroisoquinoline-2(1H)-sulfonamide], for which the IC50 at Nav 1.7 [1] is 7.6 µM; against Nav 1.5 it was > 10 µM.
As for `Cc1cn(-c2cc(C(F)(F)F)ccc2-c2cccc3c2CCN(S(=O)(=O)Nc2ncc(F)s2)C3)cn1` [Example 42, N-(5-fluorothiazol-2-yl)-5-(2-(4-methyl-1H-imidazol-1-yl)-4-(trifluoromethyl)phenyl)-3,4-dihydroisoquinoline-2(1H)-sulfonamide], the IC50 was 0.228 µM on Nav 1.7 [1], 1.34 µM against Nav 1.7 [2] and > 10 µM at Nav 1.5.
`O=S(=O)(Nc1nccs1)N1CCc2c(cccc2-c2ccc(C(F)(F)F)cc2C2=CCNCC2)C1` [Example 36, 5-(2-(1,2,3,6-Tetrahydropyridin-4-yl)-4-(trifluoromethyl)phenyl)-N-(thiazol-2-yl)-3,4-dihydroisoquinoline-2(1H)-sulfonamide hydrochloride]: the 50% inhibitory concentration (IC50) was 1.89 µM against Nav 1.7 [1], 4.68 µM against Nav 1.7 [2] and > 10 µM on Nav 1.5.
The corresponding values for `O=S(=O)(Nc1ncns1)N1CCc2c(cccc2-c2ccc(Cl)cc2Cl)C1` [Example 12, 5-(2,4-Dichlorophenyl)-N-(1,2,4-thiadiazol-5-yl)-3,4-dihydroisoquinoline-2(1H)-sulfonamide] are 2.41 µM, 1.33 µM and > 10 µM.
Take `COc1cc(C(F)(F)F)ccc1-c1cccc2c1CN(S(=O)(=O)Nc1ncns1)CC2` [Example 55, 8-(2-Methoxy-4-(trifluoromethyl)phenyl)-N-(1,2,4-thiadiazol-5-yl)-3,4-dihydroisoquinoline-2(1H)-sulfonamide]: the values for the half-maximal inhibitory concentration (IC50) on Nav 1.7 [1] and at Nav 1.5 were 9.44 µM and > 10 µM, respectively.
The corresponding values for `O=S(=O)(Nc1ncns1)N1CCc2c(cccc2-c2cccc3[nH]ncc23)C1` [Example 51, 5-(1H-Indazol-4-yl)-N-(1,2,4-thiadiazol-5-yl)-3,4-dihydroisoquinoline-2(1H)-sulfonamide] are 19.1 µM and > 10 µM.
As to `COc1cc(C(F)(F)F)ccc1-c1ccnc2c1CCN(S(=O)(=O)Nc1ccncn1)C2` [Example 64, 4-(2-methoxy-4-(trifluoromethyl)phenyl)-N-4-pyrimidinyl-5,8-dihydro-1,7-naphthyridine-7(6H)-sulfonamide], the half-maximal inhibitory concentration (IC50) on Nav 1.7 [2] came to 6.19 µM.
Take `CC(C)(C)OC(=O)N1CC=C(c2cccc3c2CCN(S(=O)(=O)Nc2ncns2)C3)CC1` [Example 57, tert-Butyl 4-(2-(N-(1,2,4-thiadiazol-5-yl)sulfamoyl)-1,2,3,4-tetrahydroisoquinolin-5-yl)-5,6-dihydropyridine-1(2H)-carboxylate]: the IC50 is 7.1 µM on Nav 1.7 [1] and > 10 µM against Nav 1.5.
For `Cc1cncc(-c2cc(C(F)(F)F)ccc2-c2cccc3c2CCN(S(=O)(=O)Nc2ncns2)C3)c1` [Example 21, 5-(2-(5-Methylpyridin-3-yl)-4-(trifluoromethyl)phenyl)-N-(1,2,4-thiadiazol-5-yl)-3,4-dihydroisoquinoline-2(1H)-sulfonamide] the same measures were 1.8 µM and 4.08 µM.
For the molecule `O=S(=O)(Nc1ncns1)N1CCc2c(cccc2-c2cncc3ccccc23)C1` [Example 25, N-(1,2,4-Thiadiazol-5-yl)-3′,4′-dihydro-[4,5′-biisoquinoline]-2′(1′H)-sulfonamide], the figures for the half-inhibitory concentration (IC50) against Nav 1.7 [1] and at Nav 1.5 were 6.9 µM and > 10 µM, respectively.
On Nav 1.7 [2], `COc1cc(C(F)(F)F)ccc1-c1ncnc2c1CCN(S(=O)(=O)Nc1ncc(F)s1)C2` [Example 60, N-(5-fluorothiazol-2-yl)-4-(2-methoxy-4-(trifluoromethyl)phenyl)-5,6-dihydropyrido[3,4-d]pyrimidine-7(8H)-sulfonamide] gave an IC50 of 0.81 µM.
As for `CN1CC=C(c2cc(Cl)cc(F)c2-c2cccc3c2CCN(S(=O)(=O)Nc2ncc(F)s2)C3)CC1` [Example 54, 5-(4-Chloro-2-fluoro-6-(1-methyl-1,2,3,6-tetrahydropyridin-4-yl)phenyl)-N-(5-fluorothiazol-2-yl)-3,4-dihydroisoquinoline-2(1H)-sulfonamide], the half-maximal inhibitory concentration (IC50) is 14.9 µM on Nav 1.7 [1] and > 10 µM on Nav 1.5.

As usually defined, the IC50 is the concentration that inhibits the measured activity by half. Read a high IC50 as lower potency.
